The target in this test is T1, thioredoxin glutathione reductase (TGR) (Schistosoma mansoni, UniProt Q962Y6).
T1 sequence (Q962Y6 1-598): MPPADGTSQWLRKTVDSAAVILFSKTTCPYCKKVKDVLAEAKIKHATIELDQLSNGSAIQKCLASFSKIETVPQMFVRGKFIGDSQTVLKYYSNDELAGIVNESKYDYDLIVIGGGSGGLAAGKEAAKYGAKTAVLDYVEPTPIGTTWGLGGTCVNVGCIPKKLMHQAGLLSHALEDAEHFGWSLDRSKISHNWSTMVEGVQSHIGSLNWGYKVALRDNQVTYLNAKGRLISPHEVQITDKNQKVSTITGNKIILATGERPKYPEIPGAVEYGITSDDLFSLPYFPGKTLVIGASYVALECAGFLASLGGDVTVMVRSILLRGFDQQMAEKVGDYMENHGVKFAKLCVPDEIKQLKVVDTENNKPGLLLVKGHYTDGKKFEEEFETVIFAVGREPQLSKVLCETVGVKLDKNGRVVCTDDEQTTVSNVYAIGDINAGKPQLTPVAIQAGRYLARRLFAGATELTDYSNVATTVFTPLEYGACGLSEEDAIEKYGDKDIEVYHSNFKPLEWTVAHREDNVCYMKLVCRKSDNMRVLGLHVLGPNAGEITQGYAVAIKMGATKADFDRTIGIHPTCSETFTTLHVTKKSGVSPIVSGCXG
The class given is biochemical.

Structures are written as SMILES.

Turning to `N#Cc1c(-c2ccccc2)no[n+]1[O-]` [furoxan, 4-phenyl-3-furoxancarbonitrile], the IC50 (usually the concentration needed to halve the response being measured) was 4 to 7.9 µM.

These data come from article PMC2669305 (Assay and drug development technologies, 2008).
